Here are results for two compounds from patent publication US11738026B2, “Combination therapy comprising an ALK2 inhibitor and a JAK2 inhibitor” (INCYTE CORPORATION, priority 2019, dated 2023).

This test concerns C57Bl/6 mice. As to the kind of experiment: Turpentine-induced anemia in mice on low iron chow; complete blood counts. The class given is in vivo. As to the method: C57Bl/6 mice (7-8-week-old, female) were purchased from Charles River Laboratories, Wilmington, Mass., and placed on low iron chow (Test Diet #AIN-76A 5TJK) two weeks prior to beginning study. Mice were continued on this diet through the course of the study. Mice were injected subcutaneously in the intrascapular region of the back of the recipient mouse with sterile filtered turpentine (Aldrich, cat #24245), or sterile saline in a 100 ul volume every week for three weeks. Therapeutic agents were orally administered at a total volume of 10 mL/kg body weight. Mice were administered vehicle (0.5% DMAC: […]) or compound (n=10 per dose group) starting shortly after the first turpentine injection (day 0), and continuing every day until the study termination. Blood was collected via by orbital sinus once weekly, and complete blood counts (CBCs) were determined by hematology instrumentation (Abaxis, model HM5). Statistical analyses were performed using Graphpad Prism software. Mice were handled according to Incyte IACUC protocols.
Together these experiments indicate that ALK2 inhibition can reverse the decreases in RBC counts, hemoglobin, and hematocrit brought on by turpentine generated, inflammation induced anemia, and this anti-anemia efficacy from ALK2 inhibition is possible in the presence of ruxolitinib.

The mark [1] stands for this setting: 30 mg/kg BID, day 21 post first turpentine injection, FIG. 2, change statistically significant by unpaired t-test.
Setting [2] is: 100 mg/kg QD, 28 days post first turpentine injection, FIG. 1.
Setting [3] is: mice also dosed with ruxolitinib (90 mg/kg BID), FIG. 2 (Compound A 30 mg/kg BID).

As for `Nc1ncc(-c2ccc([C@@]34C[C@@H]3CN(C3CCOCC3)C4)cc2)cc1C(=O)NC12CCC(O)(CC1)CC2` [Compound A, 2-amino-N-(4-hydroxybicyclo-[2.2.2]octan-1-yl)-5-(4-((1R,5S)-3-(tetrahydro-2H-pyran-4-yl)-3-azabicyclo-[3.1.0]hexan-1-yl)phenyl)nicotinamide], under setting [1], the hematocrit entry is “the same trend was demonstrated”, the hemoglobin entry was “the same trend was demonstrated” and the “red blood cell count” value is given as “the same trend was demonstrated”. Under setting [2], the hematocrit entry is “levels similar to saline (non-turpentine induced anemia) control”, the hemoglobin entry is given as “levels similar to saline (non-turpentine induced anemia) control” and the “red blood cell count” value is recorded as “levels similar to saline (non-turpentine induced anemia) control”. Where the note is “100 mg/kg QD, oral, daily from day 0, turpentine s.c. weekly for three weeks”, the “anemia brought on by turpentine” value is given as “corrected the anemia brought on by turpentine”. Besides, under setting [3], the RBC entry was “significant increases”, the hematocrit levels result is given as “significant increases” and the hemoglobin result was “significant increases”.

Take `N#CC[C@H](C1CCCC1)n1cc(-c2ncnc3[nH]ccc23)cn1` [ruxolitinib, (R)-3-(4-(7H-pyrrolo[2,3-d]pyrimidin-4-yl)-1H-pyrazol-1-yl)-3-cyclopentylpropanenitrile, reference compound]: under “90 mg/kg BID, oral, in each experiment”, the “anemias brought on by turpentine injection” value is recorded as “exacerbated the anemias”.
